Measurements: patent publication US9212196B2, “Hypophosphorous acid derivatives having antihyperalgic activity and biological applications thereof” (UNIVERSITE PARIS DESCARTES, priority 2011, dated 2015)
Entries after “also recorded” stand apart in the source; their conditions may differ.

Legend:
[1] = molecular target: mGlu8 (Homo sapiens (Human), UniProt O00222); test: Agonist activity on mGlu8 in transfected HEK293 cells, intracellular calcium release (Fluo4-AM); assay type: cell-based
Excerpt: The EC50's are compared to those of L-AP4 (L-2-amino-4-phosphonobutyric acid) used as a reference.
Metabotropic glutamate receptors were transiently transfected in HEK293 cells by electroporation as described elsewhere (Brabet I. et al., 1998) and plated in 96-well microplates. The high affinity glutamate transporter EAAC1 was co-transfected with the receptor in order to avoid any influence of glutamate released by the cells in the assay medium. In the experiments carried out by the inventors, Group-III mGluRs were co-transfected with a chimeric G-protein which couples the activation of the receptor to the phospholipase-C (PLC) pathway. Thus receptor activation induces production of inositol phosphate (IP) which in turn induces intracellular Ca^2+ release. Receptor activity was then determined by measurement of the IP production or Ca release as already described (Goudet C. et al., PNAS 2004). For intracellular calcium measurements, cells expressing mGluRs were loaded with Ca2+-sensitive fluorescent dye Fluo-4 AM (Invitrogen, Cergy-Pontoise, France) dissolved in Hanks' balanced salt solution (HBSS, Invitrogen, Cergy-Pontoise, France) containing 2.5 mM Probenicid (Sigma-Aldrich Chemie, Saint-Quentin Fallavier, France) for 1 h at 37° C., then washed and incubated with HBSS containing probenecid. A drug plate was prepared with the various concentrations of agonist to be tested and drug solution was added in each well after 20 s of recording. Fluorescence signals (excitation 485 nm, emission 525 nm) were measured by using the fluorescence microplate reader Flexstation III (Molecular Devices, Saint-Grégoire, France) at sampling intervals of 1.5 s for 60 s. All points are realized in triplicate.
The dose-response curves were fitted using the GraphPad Prism program and the following equation: y=[(ymax−ymin)/(1+(x/EC50)n)]+ymin where EC50 is the concentration of the compound necessary to obtain the half maximal effect and n is the Hill coefficient.

[2] = test system: CCI neuropathic pain model; test: Paw pressure test in CCI neuropathic pain model in rats; assay type: in vivo, rat
Description: After the induction period of the neuropathy or inflammation, various amounts of derivative 2 dissolved in serum have been injected in rats, (from 0.5 to 15 μg/rat, i.t. from 1 to 30 mg/kg, i.p.) on time-course of vocalization threshold to paw pressure. The results obtained on healthy animals are given on FIG. 1. They are expressed by the time course curves of means+/-SEM of vocalization threshold in grams (n=6-8 rats per group) (A) or by the area under the curve (B). Morphine (10 μg/rat, i.t.) is used as a positive control. […] FIG. 4 illustrates the effect of intrathecal administration of derivative 2 on the vocalization threshold to paw pressure in the CCI neuropathic pain model (effect of derivative 2 (1, 5, 10 μg/rat, i.t.) on time-course of vocalization threshold to paw pressure). Gabapentin (100 mg/kg, p.o.) is used as a positive control. […] The effect of intrathecal administration of derivative 2 (10 μg/rat, i.t.) on the vocalization threshold to paw pressure in the CCI neuropathic pain model after mGluR4 or mismatch ODN treatment is illustrated by FIG. 4. […] The animals were submitted to the paw pressure test previously described by Randall and Selitto (1957). Nociceptive thresholds, expressed in grams (g), were measured with a Ugo Basile analgesimeter (Apelex, tip diameter of the probe: 1 mm, weight: 30 g) by applying an increasing pressure to the right hind paw of rats until a squeak (vocalization threshold) was obtained (cut-off was 750 g except carrageenan treated animals for which the cut-off was 500 g). The treatments were done after the measurement of two consecutive stable vocalization threshold values and their effects were assessed 15, 30, 45, 60, 90, and 120 min after. Unilateral peripheral mononeuropathy was induced according to the method described by Bennett and Xie (1988). Briefly, after determining vocalization thresholds, rats were anesthetized with sodium pentobarbital (50 mg/kg i.p.) and four chromic gut (5-0) ligatures were tied loosely (with about 1-mm spacing) around the right common sciatic nerve. The nerve was constricted to a barely discernible degree, so that circulation through the epineurial vasculature was not interrupted. Only animals presenting a decrease ≧15% of the presurgery value of vocalization threshold were selected, i.e., 90% of ligated animals (presurgery value: 379±7 g, pre-drug value: 188±7 g). Intrathecal injections were performed, under isoflurane anesthesia (4% induction, 2% maintenance), as previously described (Mestre et al., 1994). Briefly, the anesthetized rat was held in one hand by the pelvic girdle and a 25-gauge X1-inch needle connected to a 25 μL Hamilton syringe was inserted into the subarachnoidal space between lumbar vertebrae L5 and L6, until a tail flick was elicited. The syringe was held in position for few seconds after the injection of a volume of 10 μL/rat. AS ODN was designed based on rat mGluR4 sequence in regions lacking known splice variants. […]. One ODN with scramble arrangement in the base composition compared to the 18-mer specific as was used as control for sequence-independent effects of ODN treatments. […] Pain scores were determined using standard methods in strict conformity with ethical standards (Zimmermann M., 1983) before ODN treatments and then on day 4 in the afternoon. […]

[3] = test system: model of inflammation induced by carrageenan in C57BL6 mice; test: Von Frey test in carrageenan inflammation model in mice; assay type: in vivo, mouse
Description: FIG. 2 illustrates the effect of intrathecal administration of derivative 2 on the vocalization threshold to paw pressure in the carrageenan inflammatory pain model (effect of derivative 2 (0.5, 1, 5, 10 μg/rat, i.t.) on time-course of vocalization threshold to paw pressure). Morphine (10 μg/rat, i.t.) is used as a positive control.
Adult male Sprague-Dawley rats weighting 175-200 g were purchased from Charles River. C57/BL6 mice were from Elevage Janvier, and homozygous mGlu4 (−/−) and wild-type (+/+) littermates were generated from crosses between heterozygous animals. Animals were housed under controlled environmental conditions (22° C.; 55% humidity) and kept under a 12/12 h light/dark cycle, with food and water ad libitum for a week prior to start the experiments in order to acclimatize. Animal care and experiments were carried out in accordance with the Committee for Research and Ethical Issues of the IASP (Zimmermann M., 1983; Goudet C., 2008).
Mechanical allodynia and hyperalgesia were assessed using the von Frey hair filaments of 3 different bending forces (0.07 g, 0.6 g, 1.4 g). For each filament, 5 stimuli were applied with an interval of 3-5 s.

Sequence of mGlu8 (O00222 34-908): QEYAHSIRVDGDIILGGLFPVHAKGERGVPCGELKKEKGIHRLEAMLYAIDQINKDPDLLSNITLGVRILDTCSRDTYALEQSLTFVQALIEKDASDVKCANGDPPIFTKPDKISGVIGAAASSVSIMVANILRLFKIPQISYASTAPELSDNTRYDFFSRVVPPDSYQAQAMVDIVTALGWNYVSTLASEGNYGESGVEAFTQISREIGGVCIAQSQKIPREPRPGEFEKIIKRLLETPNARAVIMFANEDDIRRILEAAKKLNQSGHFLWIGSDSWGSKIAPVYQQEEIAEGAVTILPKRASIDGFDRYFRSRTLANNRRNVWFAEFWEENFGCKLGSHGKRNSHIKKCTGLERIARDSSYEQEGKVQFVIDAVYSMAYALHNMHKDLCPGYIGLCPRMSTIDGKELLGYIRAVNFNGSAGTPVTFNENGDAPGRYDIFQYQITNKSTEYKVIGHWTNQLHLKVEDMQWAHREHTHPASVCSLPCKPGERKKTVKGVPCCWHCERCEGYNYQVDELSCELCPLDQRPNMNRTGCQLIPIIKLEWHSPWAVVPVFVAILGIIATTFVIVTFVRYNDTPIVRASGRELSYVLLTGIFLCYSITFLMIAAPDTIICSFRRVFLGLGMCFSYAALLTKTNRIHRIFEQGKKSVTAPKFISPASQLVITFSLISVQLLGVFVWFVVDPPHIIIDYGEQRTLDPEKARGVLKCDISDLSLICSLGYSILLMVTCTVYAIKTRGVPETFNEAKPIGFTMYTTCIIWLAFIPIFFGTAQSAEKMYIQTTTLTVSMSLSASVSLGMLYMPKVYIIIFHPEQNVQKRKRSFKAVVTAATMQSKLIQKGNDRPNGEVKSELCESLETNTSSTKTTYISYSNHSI

N[C@@H](CCP(=O)(O)C(O)c1ccc(OCC(=O)O)cc1)C(=O)O (stereo partly drawn) [Derivative 2, [((3S)-3-Amino-3-carboxy)propyl][(4-(carboxymethoxy)phenyl)hydroxymethyl]phosphinic Acid]
mGlu8/4 EC50 ratio ([1]; ratio of mGlu8 EC50 to mGlu4 EC50): 256
EC50 ([1]; transfected cells, calcium release, read-out: mGlu8 EC50 μM (n)): 29.2 ± 4.2 µM
antihyperalgesic effect on vocalization threshold to paw pressure ([2]; CCI neuropathic pain, rats, 1-10 μg/rat i.t.): abolishes the excess of mechanical pain
antihyperalgesic effect after antisense oligonucleotides against mGlu4 ([2]; CCI neuropathic rats, 10 μg/rat i.t., versus saline or mismatch ODN): significantly reduced
mechanical antihyperalgesia after knockdown of spinal mGlu4 expression by antisense oligonucleotides ([2]; FIG. 7 legend, model not named): reduces mechanical antihyperalgesia
antihyperalgesic effect compared to gabapentine ([2]; neuropathy model, gabapentine 100 mg/kg per os as control): significantly higher than the one of gabapentine
antihyperalgesic effect in mice lacking mGluR4 receptor versus wild-type littermates ([3]; 10 μg/mice i.t.): significantly decreased in mice lacking mGluR4 receptor; also recorded: profoundly impaired
mechanical hypersensitivity measured using Von Frey filaments ([3]; C57BL6 mice, i.t.): dose-dependently reduced the mechanical hypersensitivity
